# Measured values published in paper PMC4474090 (Journal of pharmaceutical sciences, 2012).
# How the values were obtained:
# [1] = tested on: ICAM-1/LFA-1-mediated heterotypic T-cell adhesion; assay: Inhibition of ICAM-1/LFA-1-mediated heterotypic T-cell adhesion; format: cell-based; conditions: compared with CH7
# Molt-3 T cells = conditions: read-out: cytotoxicity IC50; LFA-1-expressing Molt-3 T cells; cited from earlier work
# KB epithelial cells = conditions: read-out: toxicity IC50; cited from earlier work
# [2] = tested on: rat adjuvant arthritis model; format: in vivo
# [3] = tested on: rat adjuvant arthritis model; assay: Suppression of RA in rat adjuvant arthritis model; format: in vivo
# [4] = tested on: ICAM-1/LFA-1-mediated heterotypic T-cell adhesion; conditions: compared with cIBR; cited from earlier work
# [5] = 0.05 mg/kg i.v. once a day, Day 14
molecule,measurement,setting,value
"cyclo(1,6)PRGGKV [CHK7]",cell adhesion inhibitory activity,[1],lower cell adhesion inhibitory activity than the parent CH7
"CN(Cc1cnc2nc(N)nc(N)c2n1)c1ccc(C(=O)N[C@@H](CCC(=O)O)C(=O)O)cc1 [MTX, Methotrexate]",IC50,Molt-3 T cells,61 nM
same,IC50,KB epithelial cells,27 nM
same,spleen histology: pyogranulomatous inflammation,[2]; 0.05 mg/kg,multi-focal small areas of pyogranulomatous inflammation
same,animal body weight,"[2]; arthritis animals, 0.05 mg/kg, days 0-14",lost weight after day 8
same,Rat Liver Weight ± SE,"[2]; arthritis rats, 0.05 mg/kg i.v. once a day, Day 14",6.1289 ± 0.1451 g
same,AUC Paw Ankle Diameter ± SE,[3]; [5],2.388 ± 0.028
same,Bone Resorption Score ± SE,[3]; [5],3.1 ± 0.4
same,Inflammation Score ± SE,[3]; [5],4.9 ± 0.1
same,ankle histology: bone resorption,"[3]; 0.05 mg/kg, day 14, H&E",Moderate bone resorption was present across the physis
same,ankle histology: synovitis and periarticular inflammation,"[3]; 0.05 mg/kg, day 14, H&E",severe synovitis (S) and periarticular inflammation
same,Paw Weight ± SE,"[3]; arthritis rats, 0.05 mg/kg i.v. once a day day 0-14, Day 14",3.5790 ± 0.0877 g
"cyclo(1,6)PRGGSV [CH7]",activity in inhibiting ICAM-1/LFA-1-mediated heterotypic T-cell adhesion,[4],activity comparable to that of cIBR
